In patent EP2924039A1, “2-Amino-1-phenyl-pyrrolo[3,2-b]quinoxaline-3-carboxamide derivates” (Universität Zürich, priority 2014, dated 2015):
pIC50: −log10 of the molar value.

Experiments:
full-length human EphB4 = molecular target: T1, full-length human EphB4 (Homo sapiens, UniProt P54760); experiment: Cellular phosphorylation assay (sandwich ELISA, ProQinase); format: cell-based; conditions: mouse embryonic fibroblast cells overexpressing EphB4, stimulated with murine ephrinB2-Fc, read-out: cell IC50
T1 construct: stably transfected to overexpress full-length human EphB4; host or cells: Mouse embryonic fibroblast cells
T1 sequence (P54760 16-987): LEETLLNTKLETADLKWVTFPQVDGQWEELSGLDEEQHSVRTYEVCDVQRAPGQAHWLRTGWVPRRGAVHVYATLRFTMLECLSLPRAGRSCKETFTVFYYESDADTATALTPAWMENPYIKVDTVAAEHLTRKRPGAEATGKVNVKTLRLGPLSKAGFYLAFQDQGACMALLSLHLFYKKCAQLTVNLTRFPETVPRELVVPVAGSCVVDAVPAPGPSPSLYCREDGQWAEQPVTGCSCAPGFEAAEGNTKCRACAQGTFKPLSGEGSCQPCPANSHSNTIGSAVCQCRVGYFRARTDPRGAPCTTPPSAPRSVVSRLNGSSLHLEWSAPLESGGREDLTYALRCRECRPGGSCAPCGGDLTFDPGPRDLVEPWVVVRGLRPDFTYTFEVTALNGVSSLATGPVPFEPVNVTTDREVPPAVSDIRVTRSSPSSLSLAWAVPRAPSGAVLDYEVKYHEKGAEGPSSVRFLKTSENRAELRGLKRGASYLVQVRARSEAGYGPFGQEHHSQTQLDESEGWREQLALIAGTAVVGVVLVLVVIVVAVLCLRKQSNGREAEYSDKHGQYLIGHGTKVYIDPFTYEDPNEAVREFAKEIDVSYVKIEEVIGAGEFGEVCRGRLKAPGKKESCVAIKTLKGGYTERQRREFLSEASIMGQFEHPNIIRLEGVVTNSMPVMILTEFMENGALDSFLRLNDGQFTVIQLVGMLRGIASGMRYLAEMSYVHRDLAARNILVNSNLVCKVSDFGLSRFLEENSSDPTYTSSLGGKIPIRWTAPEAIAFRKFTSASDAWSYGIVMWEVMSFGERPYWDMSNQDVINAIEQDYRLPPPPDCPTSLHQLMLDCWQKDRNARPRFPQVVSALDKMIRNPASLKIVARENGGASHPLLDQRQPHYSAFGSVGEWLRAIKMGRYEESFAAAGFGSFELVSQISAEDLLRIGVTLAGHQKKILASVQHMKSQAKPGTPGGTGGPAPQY
Method: Cellular phosphorylation assays: The cellular phosphorylation experiments were performed at ProQinase GmbH. Mouse embryonic fibroblast cells, stably transfected to overexpress full-length human EphB4, were plated at 4×10^4 cells/well in DMEM supplemented with 10% FCS in 48-well culture dishes. Medium was replaced by DMEM without FCS before test compounds prediluted in 100% DMSO were added (final DMSO concentration of 1 %). After incubation for 90 min at 37 °C, cells were stimulated for 2 h at 4 °C using murine ephrinB2-Fc at a final concentration of 2 µg/ml. Quantification of EphB4 phosphorylation was assessed in a 96-well plate via sandwich ELISA using a myc capture antibody and an antiphosphotyrosine detection antibody. Table 4: Cell IC50 (µmol/l) in cells overexpressing EphB4

[1] = tested on: A498 (kidney cancer) cells; experiment: Cell culture and GI50 determination (resazurin), A-498; format: cell-based; conditions: Homo sapiens, A-498, 48h incubation
Method: Krek (Institute of Cell Biology, ETH Zurich) were cultured in Dulbelcco's modified Eagle's medium (DMEM) supplemented with 10% (v/v) fetal bovine serum. K562 leukemia cells obtained from Dr. Silvio Hemmi (Institute of Molecular Life Sciences, UZH) were cultured using RPMI medium supplemented with 5% (v/v) fetal bovine serum. All the media was additionally supplemented with 100 units/mL of penicillin, 100µg/mL of streptomycin, 4.5 g/L glucose, 0.11g/L sodium pyrubate and 2mM glutamine and the cells were grown at 37°C in 5% CO2 atmosphere with 80% relative humidity.
The old media was removed, the cells were washed with PBS (phosphate-buffered saline) and fresh media was added. […] Control cells were treated with the same DMSO concentrations. […] After 3 hours, the fluorescence was quantified using a fluorescence microplate reader (Biotek, FLx800™) at the respective excitation and emission wavelength of 560 and 590 nm. Resazurin becomes fluorescent under mitochondrial reduction and its emission directly correlates with the metabolic stability of the cells. […] All measurements were performed at least in triplicate (see table 1).

pIC50 (full-length human EphB4)	GI50 [1]	SMILES
7.80	–	NC(=O)c1c(N)n(-c2cccc(C(=O)Nc3cccc(C(F)(F)F)c3)c2)c2nc3ccccc3nc12 [Compound 10c, 2-amino-1-(3-((3-(trifluoromethyl)phenyl)carbamoyl)phenyl)-1H-pyrrolo[2,3-b]quinoxaline-3-carboxamide]
7.70	13400 nM	NC(=O)c1c(N)n(-c2cccc(NC(=O)c3cccc(C(F)(F)F)c3)c2)c2nc3ccccc3nc12 [Compound 10d, 2-amino-1-(3-(3-(trifluoromethyl)benzamido)phenyl)-1H-pyrrolo[2,3-b]quinoxaline-3-carboxamide]
